The values below come from ChEMBL document CHEMBL1127156, “m-Alkyl, ,,-trifluoroacetophenones: A new class of potent transition state analog inhibitors of acetylcholinesterase” (Bioorg Med Chem Lett, 1993).

The term Ki denotes a dissociation constant, usually derived from enzyme kinetics or from competition with a known ligand. A low value points to tighter binding.

Structures are written as SMILES.

This assay deals with Acetylcholinesterase (Torpedo californica, UniProt P04058). Briefly: Tested for the ability to inhibit Acetylcholinesterase (AChE) from Torpedo californica. Further details: species or system Tetronarce californica.
Acetylcholinesterase, sequence (P04058 whole entry): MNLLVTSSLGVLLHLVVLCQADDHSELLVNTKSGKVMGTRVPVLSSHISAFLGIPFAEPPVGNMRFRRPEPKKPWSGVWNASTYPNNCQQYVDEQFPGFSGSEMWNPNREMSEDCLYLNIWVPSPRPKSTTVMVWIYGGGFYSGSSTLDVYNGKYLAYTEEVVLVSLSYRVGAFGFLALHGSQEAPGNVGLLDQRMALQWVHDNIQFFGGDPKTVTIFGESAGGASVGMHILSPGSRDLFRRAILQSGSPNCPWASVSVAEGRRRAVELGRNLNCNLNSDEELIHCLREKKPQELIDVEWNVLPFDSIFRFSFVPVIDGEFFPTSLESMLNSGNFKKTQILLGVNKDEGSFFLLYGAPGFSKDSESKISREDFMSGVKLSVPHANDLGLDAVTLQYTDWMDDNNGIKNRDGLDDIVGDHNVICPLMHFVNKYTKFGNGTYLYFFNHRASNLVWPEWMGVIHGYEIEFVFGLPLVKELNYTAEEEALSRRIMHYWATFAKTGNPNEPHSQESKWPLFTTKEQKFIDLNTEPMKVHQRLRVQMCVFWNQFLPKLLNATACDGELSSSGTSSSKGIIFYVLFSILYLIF
As to `CCc1cccc(C(=O)C(F)(F)F)c1`, the Ki is 0.39 nM. `O=C(c1cccc(C(F)(F)F)c1)C(F)(F)F` displayed a Ki of 0.39 nM. For `Cc1cccc(C(=O)C(F)(F)F)c1`, the inhibitory constant (Ki) is 2.4 nM.

Compound `CC(C)c1cccc(C(=O)C(F)(F)F)c1` showed an inhibitory constant (Ki) of 0.0085 nM. `CC(C)(C)c1cccc(C(=O)C(F)(F)F)c1` yielded an inhibition constant (Ki) of 0.0037 nM.
